Where a name gives a salt, the structure may show the parent alone.
Target: T1, full length SGK1 (Homo sapiens, UniProt O00141)
T1 construct: 125 μM full length SGK1 (Life Technologies Part #PR7358A); purchased Life Technologies PR7358A
T1 sequence (O00141 1-431): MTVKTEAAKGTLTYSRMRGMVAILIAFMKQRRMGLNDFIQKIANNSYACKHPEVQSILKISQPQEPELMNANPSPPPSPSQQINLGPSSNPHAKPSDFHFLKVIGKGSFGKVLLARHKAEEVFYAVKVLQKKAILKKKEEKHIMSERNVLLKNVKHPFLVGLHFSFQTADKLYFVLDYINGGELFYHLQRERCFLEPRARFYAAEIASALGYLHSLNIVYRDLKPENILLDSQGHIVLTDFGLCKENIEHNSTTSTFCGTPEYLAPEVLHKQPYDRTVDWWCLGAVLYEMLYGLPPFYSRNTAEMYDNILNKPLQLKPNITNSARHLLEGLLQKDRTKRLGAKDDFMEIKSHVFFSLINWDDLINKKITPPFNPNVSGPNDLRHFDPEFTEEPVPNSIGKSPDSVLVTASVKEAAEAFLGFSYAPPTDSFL
Assay: SGK1 inhibition Assay A (Caliper LabChip electrophoretic separation of fluorescent peptide substrate and phosphorylated product)
Format: biochemical
Conditions: Assay A; 20 μM ATP, 40 min incubation; read-out: SGK1 IC50

SMILES	IC50 [nM]
Nc1ncnn2c(-c3cncnc3)cc(N3CCC[C@@H](NC(=O)c4sc(Cl)cc4OCC(=O)N4CCCC4)C3)c12 [Example 419, (R)-N-(1-(4-amino-7-(pyrimidin-5-yl)pyrrolo[2,1-f][1,2,4]triazin-5-yl)piperidin-3-yl)-5-chloro-3-(2-oxo-2-(pyrrolidin-1-yl)ethoxy) thiophene-2-carboxamide]	120
CS(=O)(=O)c1ccc(-c2c(Cl)c(N3CCC[C@@H](NC(=O)c4ccncc4)C3)c3c(N)ncnn23)cc1 [Example 196, N-[(3R)-1-[4-amino-6-chloro-7-(4-methanesulfonylphenyl)pyrrolo[2,1-f][1,2,4]triazin-5-yl]piperidin-3-yl]pyridine-4-carboxamide]	222
COC(=O)N1CC=C(c2cc(N3CCC[C@@H](NC(=O)c4sc(C(F)F)cc4OC4COC4)C3)c3c(N)ncnn23)C1 [Example 434, methyl (R)-3-(4-amino-5-(3-(5-(difluoromethyl)-3-(oxetan-3-yloxy)thiophene-2-carboxamido)piperidin-1-yl)pyrrolo[2,1-f][1,2,4]triazin-7-yl)-2,5-dihydro-1H-pyrrole-1-carboxylate]	10
Nc1ncnn2c(-c3cnc4ncnn4c3)cc(N3CCC[C@@H](NC(=O)c4ccc(Cl)s4)C3)c12 [Example 246]	13
COC(=O)N(C)CCOc1cc(Cl)sc1C(=O)N[C@@H]1CCCN(c2cc(C3=CCN(C(C)=O)C3)n3ncnc(N)c23)C1 [Example 333]	1
CC(C)(C)OC(=O)N[C@@H]1CCCN(c2cc(-c3ccc(S(C)(=O)=O)cc3)n3ncnc(N)c23)C1 [Example 11, tert-butyl (R)-(1-(4-amino-7-(4-(methylsulfonyl)phenyl)pyrrolo[2,1-f][1,2,4]triazin-5-yl)piperidin-3-yl)carbamate]	1750
Cc1cc(C(=O)N[C@@H]2CCCN(c3cc(-c4ccc(S(C)(=O)=O)cc4)n4ncnc(N)c34)C2)ccn1 [Example 33, (R)-N-(1-(4-amino-7-(4-(methylsulfonyl)phenyl)pyrrolo[2,1-f][1,2,4]triazin-5-yl)piperidin-3-yl)-2-methylisonicotinamide]	9
CS(=O)(=O)c1ccc(-c2cc(N3CCC[C@@H](NC(=O)c4ccc(F)cc4)C3)c3c(N)ncnn23)cc1 [Example 25, (R)-N-(1-(4-amino-7-(4-(methylsulfonyl)phenyl)pyrrolo[2,1-f][1,2,4]triazin-5-yl)piperidin-3-yl)-4-fluorobenzamide]	22
CN(C)CCOc1cc(Cl)sc1C(=O)N[C@@H]1CCCN(c2cc(C3=CCN(C(=O)CC(F)(F)F)C3)n3ncnc(N)c23)C1 [Example 176, (R)-N-(1-(4-amino-7-(1-(3,3,3-trifluoropropanoyl)-2,5-dihydro-1H-pyrrol-3-yl)pyrrolo[2,1-f][1,2,4]triazin-5-yl)piperidin-3-yl)-5-chloro-3-(2-(dimethylamino)ethoxy) thiophene-2-carboxamide, 2 TFA]	4
Cc1cc(CO)c(C(=O)N[C@@H]2CCCN(c3cc(-c4ccnc(F)c4)n4ncnc(N)c34)C2)s1 [Example 202, (R)—N-(1-(4-amino-7-(2-fluoropyridin-4-yl)pyrrolo[2,1-f][1,2,4]triazin-5-yl)piperidin-3-yl)-3-(hydroxymethyl)-5-methylthiophene-2-carboxamide]	12
CS(=O)(=O)c1ccc(-c2cc(N3CCC[C@@H](NC(=O)c4cccc(-c5cnco5)c4)C3)c3c(N)ncnn23)cc1 [Example 51, (R)-N-(1-(4-amino-7-(4-(methylsulfonyl)phenyl)pyrrolo[2,1-f][1,2,4]triazin-5-yl)piperidin-3-yl)-3-(oxazol-5-yl)benzamide]	13
CC(=O)NCCOc1cc(C(F)F)sc1C(=O)N[C@@H]1CCCN(c2cc(-c3ccc(C#N)nc3)n3ncnc(N)c23)C1 [Example 425, (R)-3-(2-acetamidocthoxy)-N-(1-(4-amino-7-(6-cyanopyridin-3-yl)pyrrolo[2,1-f][1,2,4]triazin-5-yl)piperidin-3-yl)-5-(difluoromethyl)thiophene-2-carboxamide]	14
CC(=O)N(C)CCOc1cc(Cl)sc1C(=O)N[C@@H]1CCCN(c2cc(C3=CCN(C(C)=O)C3)n3ncnc(N)c23)C1 [Example 332, (R)—N-(1-(7-(1-acetyl-2,5-dihydro-1H-pyrrol-3-yl)-4-aminopyrrolo[2,1-f][1,2,4]triazin-5-yl)piperidin-3-yl)-5-chloro-3-(2-(N-methylacetamido)ethoxy)thiophene-2-carboxamide]	18
COc1ncccc1C(=O)N[C@@H]1CCCN(c2cc(-c3ccc(S(C)(=O)=O)cc3)n3ncnc(N)c23)C1 [Example 60, (R)-N-(1-(4-amino-7-(4-(methylsulfonyl)phenyl)pyrrolo[2,1-f][1,2,4]triazin-5-yl)piperidin-3-yl)-2-methoxynicotinamide]	130
CN(C)CCOc1cc(C(F)F)sc1C(=O)N[C@@H]1CCCN(c2cc(-c3cncnc3)n3ncnc(N)c23)C1 [Example 307, (R)-N-(1-(4-amino-7-(pyrimidin-5-yl)pyrrolo[2,1-f] [1,2,4]triazin-5-yl)piperidin-3-yl)-5-(difluoromethyl)-3-(2-(dimethylamino)ethoxy)thiophene-2-carboxamide]	27
CS(=O)(=O)N1CC=C(c2cc(N3CCC[C@@H](NC(=O)c4sc(Cl)cc4OCCN4CCOCC4)C3)c3c(N)ncnn23)C1 [Example 142, (R)—N-(1-(4-amino-7-(1-(methylsulfonyl)-2,5-dihydro-1H-pyrrol-3-yl)pyrrolo[2,1-f][1,2,4]triazin-5-yl)piperidin-3-yl)-5-chloro-3-(2-morpholinoethoxy)thiophene-2-carboxamide, TFA]	9

Second part, the compound after the results:

IC50 [nM]	SMILES
20	CC(=O)N1CC=C(c2cc(N3CCC[C@@H](NC(=O)c4cccc(N5CC6(CN(C)C6)C5)n4)C3)c3c(N)ncnn23)C1 [Example 784, (R)-N-(1-(7-(1-acetyl-2,5-dihydro-1H-pyrrol-3-yl)-4-aminopyrrolo[2,1-f][1,2,4]triazin-5-yl)piperidin-3-yl)-6-(6-methyl-2,6-diazaspiro[3.3]heptan-2-yl)picolinamide]
12	N#Cc1ccc(-c2cc(N3CCC[C@@H](NC(=O)c4sc(Cl)cc4OC4CCNC4)C3)c3c(N)ncnn23)cn1 (stereo partly drawn) [Example 637, N-((R)-1-(4-amino-7-(6-cyanopyridin-3-yl)pyrrolo[2,1-f][1,2,4]triazin-5-yl)piperidin-3-y1)-5-chloro-3-(pyrrolidin-3-yloxy)thiophene-2-carboxamide]
7	N#Cc1ccc(-c2cc(N3CCC[C@@H](NC(=O)c4sc(C(F)F)cc4OC4COC4)C3)c3c(N)ncnn23)cn1 [Example 435, (R)-N-(1-(4-amino-7-(6-cyanopyridin-3-yl)pyrrolo[2,1-f][1,2,4]triazin-5-yl)piperidin-3-yl)-5-(difluoromethyl)-3-(oxetan-3-yloxy)thiophene-2-carboxamide]
38	CC(=O)N1CC=C(c2cc(N3CCC[C@@H](NC(=O)c4ccc(C#N)cc4)C3)c3c(N)ncnn23)C1 [Example 494, (R)-N-(1-(7-(1-acetyl-2,5-dihydro-1H-pyrrol-3-yl)-4-aminopyrrolo[2,1-f][1,2,4]triazin-5-yl)piperidin-3-yl)-4-cyanobenzamide]
10	CC(=O)N1CC=C(c2cc(N3CCC[C@@H](NC(=O)c4cccc(NCCN5CCCC5)n4)C3)c3c(N)ncnn23)C1 [Example 763, (R)-N-(1-(7-(1-acetyl-2,5-dihydro-1H-pyrrol-3-yl)-4-aminopyrrolo[2,1-f][1,2,4]triazin-5-yl)piperidin-3-yl)-6-((2-(pyrrolidin-1-yl)ethyl)amino)picolinamide]
4	Nc1ncnn2c(-c3ccnc(C(F)F)c3)cc(N3CCC[C@@H](NC(=O)c4cc5ccccc5s4)C3)c12 [Example 645, (R)-N-(1-(4-amino-7-(2-(difluoromethyl)pyridin-4-y1)pyrrolo[2,1-f][1,2,4]triazin-5-y1)piperidin-3-yl)benzo[b]thiophene-2-carboxamide]
68	CC(=O)N1CC=C(c2cc(N3CCC[C@@H](NC(=O)c4ccnc(OCCN5CCOCC5)c4)C3)c3c(N)ncnn23)C1 [Example 707, (R)-N-(1-(7-(1-acetyl-2,5-dihydro-1H-pyrrol-3-yl)-4-aminopyrrolo[2,1-f][1,2,4]triazin-5-yl)piperidin-3-yl)-2-(2-morpholinoethoxy) isonicotinamide]
81	CC(=O)N1CC=C(c2cc(N3CCC[C@@H](NC(=O)c4ccccn4)C3)c3c(N)ncnn23)C1 [Example 728, (R)-N-(1-(7-(1-acetyl-2,5-dihydro-1H-pyrrol-3-yl)-4-aminopyrrolo[2,1-f][1,2,4]triazin-5-yl)piperidin-3-yl)picolinamide]
48	CC(=O)N1CC=C(c2cc(N3CCC[C@@H](NC(=O)c4cncc(N5CCN(C)CC5)n4)C3)c3c(N)ncnn23)C1 [Example 736]
12	Nc1ncnn2c(C3=CCN(C(=O)c4ccccn4)C3)cc(N3CCC[C@@H](NC(=O)c4ccc(Cl)s4)C3)c12 [Example 900, (R)-N-(1-(4-amino-7-(1-picolinoy1-2,5-dihydro-1H-pyrrol-3-yl)pyrrolo[2,1-f][1,2,4]triazin-5-y1)piperidin-3-y1)-5-chlorothiophene-2-carboxamide]
2	CC(=O)N1CC=C(c2cc(N3CCC[C@@H](NC(=O)c4cccc(N5CCN6CCCC6C5)n4)C3)c3c(N)ncnn23)C1 (stereo partly drawn) [Example 769, N-((R)-1-(7-(1-acetyl-2,5-dihydro-1H-pyrrol-3-yl)-4-aminopyrrolo[2,1-f][1,2,4]triazin-5-yl)piperidin-3-yl)-6-(hexahydropyrrolo[1,2-a]pyrazin-2(1H)-yl)picolinamide]

From patent US20260250290A1 (BRISTOL-MYERS SQUIBB COMPANY, priority 2023, published 2026)
